From PMC11157481, “Mechanochemical Synthesis of New Praziquantel Cocrystals: Solid-State Characterization and Solubility” (Crystal Growth & Design, 2024)
Like-named read-outs stand apart in the source and are kept apart here.

Experiment: Equilibrium solubility by the shake-flask method with HPLC-UV analysis
Type: physicochemical
Conditions: for [PZQ] in SCF attained in 24 hours / [PZQ] in SGF attained in 24 hours / [PZQ] in SIF attained in 24 hours / [PZQ] in H2O attained in 24 hours / solubility thermodynamic at 24 h: shake-flask; for [PZQ] in SCF attained in 24 hours / [PZQ] in SGF attained in 24 hours / [PZQ] in SIF attained in 24 hours / [PZQ] in H2O attained in 24 hours: n = 3; for Increase in solubility in SIF compared to PZQ alone: 24 h, relative to pure PZQ; for solubility thermodynamic at 24 h: thermodynamic from solid
Method: The stock solution of PZQ (2 mg/mL) was prepared by dissolving the pure compound in MeCN. Corresponding aliquots were diluted with the same solvent for the preparation of working PZQ solutions. Samples of 10 μL were injected into the chromatographic system. […] Ultrapure water was used as the reference dissolution medium. The solubility of the obtained PZQ cocrystals was determined by the shake-flask method. Briefly, excess PZQ and PZQ cocrystals (the corresponding amount of 6 mg of PZQ) were added to 2 mL vials containing 2 mL of the dissolution medium. The slurry samples were placed in an orbital shaker to achieve uniform mixing at 37 °C for 24 h. At different time intervals (10, 20, 30, 40, 50, 60, and 90 min), an aliquot of 200 μL of each sample was collected after centrifugation, filtered, and analyzed concerning the PZQ content by HPLC-UV analysis.
The solubilities of each cocrystal and PZQ were tested in ultrapure water and the three dissolution media, simulating the biorelevant fluids present along the entire gastrointestinal tract, namely, SGF (simulated gastric fluid), SIF (simulated intestinal fluid), and SCF (simulated colonic fluid).

[1] = simulated colonic fluid pH 7.8, 37 °C
[2] = simulated gastric fluid pH 1.5, 37 °C
[3] = simulated intestinal fluid pH 7.4, 37 °C

| Increase in solubility in SIF compared to PZQ alone [fold] | Compound | [PZQ] in SCF attained in 24 hours [1] [µg/mL] | [PZQ] in SGF attained in 24 hours [2] [µg/mL] | [PZQ] in SIF attained in 24 hours [3] [µg/mL] | [PZQ] in H2O attained in 24 hours (ultrapure water, 37 °C) [µg/mL] | solubility thermodynamic at 24 h (simulated colonic fluid (SCF), fassgf or other biorelevant, simulated colonic fluid pH 7.8, 37 °C, n = 3, read-out: [PZQ] in SCF attained in 24 hours) [µg/mL] | solubility thermodynamic at 24 h (simulated gastric fluid (SGF), simulated gastric fluid pH 1.5, 37 °C, n = 3, read-out: [PZQ] in SGF attained in 24 hours) [µg/mL] | solubility thermodynamic at 24 h (simulated intestinal fluid (SIF), fassgf or other biorelevant, simulated intestinal fluid pH 7.4, 37 °C, n = 3, read-out: [PZQ] in SIF attained in 24 hours) [µg/mL] | solubility thermodynamic at 24 h (ultrapure water, 37 °C, n = 3, read-out: [PZQ] in H2O attained in 24 hours) [µg/mL] |
| --- | --- | --- | --- | --- | --- | --- | --- | --- | --- |
| – | O=C(C1CCCCC1)N1CC(=O)N2CCc3ccccc3C2C1.O=C(O)c1ccc(O)cc1 (stereo not drawn) [Co-Crystal 5, PZQ – 4-HYDROXYBENZOIC ACID (4HBA)] | 247.22 | 203.21 | 217.86 | 225.06 | – | – | – | – |
| – | O.O=C(C1CCCCC1)N1CC(=O)N2CCc3ccccc3C2C1.O=C(O)c1ccccc1O (stereo not drawn) [Co-Crystal 6, PZQ – SALICYLIC ACID (SAL) – H2O] | 258.43 | 202.80 | 246.81 | 220.38 | – | – | – | – |
| – | O=C(C1CCCCC1)N1CC(=O)N2CCc3ccccc3C2C1.O=C(O)C(=O)O (stereo not drawn) [Co-Crystal 8, PZQ – OXALIC ACID (OXA)] | 252.98 | 238.78 | 229.26 | 250.12 | – | – | – | – |
| – | O=C(C1CCCCC1)N1CC(=O)N2CCc3ccccc3C2C1.O=C(C1CCCCC1)N1CC(=O)N2CCc3ccccc3C2C1.O=C(O)c1cccc(O)c1 (stereo not drawn) [Co-Crystal 9, PZQ – 3-HYDROXYBENZOIC ACID (3HBA) (2:1)] | 257.95 | 231.45 | 226.47 | 248.12 | – | – | – | – |
| – | O=C(C1CCCCC1)N1CC(=O)N2CCc3ccccc3C2C1 (stereo not drawn) [Co-Crystal 12, praziquantel] | – | – | – | – | 220 | 200 | 193 | 211 |
| – | PZQ – 4-AMINOSALICYLIC ACID (4ASA) – MeCN [Co-Crystal 3] | 294.31 | 323.31 | 264.29 | 278.89 | – | – | – | – |
| 1.87 | PZQ – 5-HYDROXYISOPHTHALIC ACID (5HIP) – MeCN [Co-Crystal 1] | 122.86 | 85.70 | 361.00 | 95.51 | – | – | – | – |
| 1.26 | PZQ – TRIMESIC ACID (TRI) – H2O [Co-Crystal 4] | 193.95 | 44.98 | 242.32 | 56.09 | – | – | – | – |

| Compound | Increase in solubility in SIF compared to PZQ alone [fold] | [PZQ] in SCF attained in 24 hours [1] [µg/mL] | [PZQ] in SGF attained in 24 hours [2] [µg/mL] | [PZQ] in SIF attained in 24 hours [3] [µg/mL] | [PZQ] in H2O attained in 24 hours (ultrapure water, 37 °C) [µg/mL] | solubility thermodynamic at 24 h (simulated colonic fluid (SCF), fassgf or other biorelevant, simulated colonic fluid pH 7.8, 37 °C, n = 3, read-out: [PZQ] in SCF attained in 24 hours) [µg/mL] | solubility thermodynamic at 24 h (simulated gastric fluid (SGF), simulated gastric fluid pH 1.5, 37 °C, n = 3, read-out: [PZQ] in SGF attained in 24 hours) [µg/mL] | solubility thermodynamic at 24 h (simulated intestinal fluid (SIF), fassgf or other biorelevant, simulated intestinal fluid pH 7.4, 37 °C, n = 3, read-out: [PZQ] in SIF attained in 24 hours) [µg/mL] | solubility thermodynamic at 24 h (ultrapure water, 37 °C, n = 3, read-out: [PZQ] in H2O attained in 24 hours) [µg/mL] |
| --- | --- | --- | --- | --- | --- | --- | --- | --- | --- |
| O=C(C1CCCCC1)N1CC(=O)N2CCc3ccccc3C2C1.O=C(O)c1cccc(O)c1 (stereo not drawn) [Co-Crystal 7, PZQ – 3-HYDROXYBENZOIC ACID (3HBA) (1:1)] | 1.2 | 251.67 | 214.21 | 232.31 | 252.60 | – | – | – | – |
